Activity calls are given as the source filed them. The rule behind the calls is not given here. Numbered stars: 1 amine (or outer) side, 2 acyl side, 3 side chain; on linkers, the order of the positions; unused ones are H or OH. Square brackets hold non-standard residues; d marks the D form. Peptide text beside a SMILES is read from it. * marks the point of attachment. Ahppa(3S,4S) = O=C(C[C@H](O)[C@H](Cc1ccccc1)N[*:1])[*:2]; dNMeF = CN[C@H](Cc1ccccc1)C(=O)O; NMeQ = CN[C@@H](CCC(N)=O)C(=O)O; Cbz = O=C(OCc1ccccc1)*; Lac = C[C@H](O)C(=O)O
Tests used:
Beta-secretase 1 [1] = molecular target: T1, Beta-secretase 1 (Homo sapiens, UniProt P56817); experiment: Inhibition of BACE1 (unknown origin) after 90 mins by fluorescence assay
Beta-secretase 1 [2] = molecular target: T1, Beta-secretase 1; experiment: Inhibition of BACE1 (unknown origin) at 10 uM after 90 mins by fluorescence assay

T1 sequence (P56817 whole entry): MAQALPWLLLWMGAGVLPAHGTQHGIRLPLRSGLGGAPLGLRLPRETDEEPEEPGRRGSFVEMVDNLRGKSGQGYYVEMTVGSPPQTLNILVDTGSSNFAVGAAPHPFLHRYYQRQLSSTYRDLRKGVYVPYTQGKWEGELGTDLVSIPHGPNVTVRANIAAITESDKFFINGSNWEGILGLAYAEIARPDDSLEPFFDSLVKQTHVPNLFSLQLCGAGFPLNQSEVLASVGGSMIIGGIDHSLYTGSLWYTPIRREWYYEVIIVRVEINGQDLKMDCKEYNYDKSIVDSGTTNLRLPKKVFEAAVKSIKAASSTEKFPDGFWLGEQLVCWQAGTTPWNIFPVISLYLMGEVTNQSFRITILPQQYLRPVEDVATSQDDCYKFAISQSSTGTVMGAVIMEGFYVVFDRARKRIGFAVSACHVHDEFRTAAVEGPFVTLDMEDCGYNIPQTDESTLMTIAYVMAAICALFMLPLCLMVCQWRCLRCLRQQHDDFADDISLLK

Compound | IC50 (Beta-secretase 1 [1]; read-out: IC50) | inhibition (Beta-secretase 1 [2]) | IC50 (Beta-secretase 1 [1])
CC(C)C[C@H](NC(=O)C[C@H](O)[C@H](Cc1ccccc1)NC(=O)OC(C)(C)C)C(=O)N[C@@H](C)C(=O)N(C)[C@H](Cc1ccccc1)C(=O)O | > 10 µM | 41.7% | –
CCCN(CCC)C(=O)c1cccc(C(=O)N[C@@H](Cc2ccccc2)[C@@H](O)CC(=O)N[C@@H](CC(C)C)C(=O)N[C@@H](C)C(=O)N(C)[C@H](Cc2ccccc2)C(=O)OCc2ccccc2)n1 | > 10 µM | 28.7% | –
CC(C)C[C@H](NC(=O)C[C@H](O)[C@H](Cc1ccccc1)NC(=O)[C@H](CCC(N)=O)N(C)C(=O)[C@@H](NC(=O)[C@H](C)O)C(C)C)C(=O)N[C@@H](C)C(=O)N(C)[C@H](Cc1ccccc1)C(=O)O (H-[Lac]V[NMeQ][Ahppa(3S,4S)]LA[dNMeF]-OH) | 0.078 µM | – | –
CCCN(CCC)C(=O)c1cccc(C(=O)N[C@@H](Cc2ccccc2)[C@@H](O)CC(=O)N[C@@H](CC(C)C)C(=O)N[C@@H](C)C(=O)N(C)[C@H](Cc2ccccc2)C(=O)OCc2ccccc2)c1 | 1.01 µM | 89.4% | –
COC(=O)[C@@H](Cc1ccccc1)N(C)C(=O)[C@H](C)NC(=O)[C@H](CC(C)C)NC(=O)C[C@H](O)[C@H](Cc1ccccc1)NC(=O)[C@H](CCC(N)=O)N(C)C(=O)[C@@H](NC(=O)OCc1ccccc1)C(C)C | 0.87 µM | 97% | –
COC(=O)C[C@H](O)[C@H](Cc1ccccc1)NC(=O)[C@H](CCC(N)=O)N(C)C(=O)[C@@H](NC(=O)OCc1ccccc1)C(C)C | > 10 µM | 22.1% | –
COC(=O)[C@H](C)NC(=O)[C@H](CC(C)C)NC(=O)C[C@H](O)[C@H](Cc1ccccc1)NC(=O)[C@H](CCC(N)=O)N(C)C(=O)[C@@H](NC(=O)OCc1ccccc1)C(C)C (Cbz-V[NMeQ][Ahppa(3S,4S)]LA-OMe) | 2.61 µM | 90.6% | –
COC(=O)[C@H](CC(C)C)NC(=O)C[C@H](O)[C@H](Cc1ccccc1)NC(=O)[C@H](CCC(N)=O)N(C)C(=O)OCc1ccccc1 | > 10 µM | 24.2% | –
COC(=O)[C@H](C)NC(=O)[C@H](CC(C)C)NC(=O)C[C@H](O)[C@H](Cc1ccccc1)NC(=O)[C@H](CCC(N)=O)N(C)C(=O)OCc1ccccc1 | > 10 µM | 17.5% | –
COC(=O)[C@H](CC(C)C)NC(=O)C[C@H](O)[C@H](Cc1ccccc1)NC(=O)OC(C)(C)C | > 10 µM | 25.8% | –
COC(=O)C[C@H](O)[C@H](Cc1ccccc1)NC(=O)[C@H](CCC(N)=O)N(C)C(=O)OCc1ccccc1 | – | inactive | Not Active

Now from value to molecule, other results behind:

IC50 (Beta-secretase 1 [1]; read-out: IC50) | inhibition (Beta-secretase 1 [2]) | Compound | IC50 (Beta-secretase 1 [1])
> 10 µM | 11.6% | COC(=O)[C@H](C)NC(=O)[C@H](CC(C)C)NC(=O)C[C@H](O)[C@H](Cc1ccccc1)NC(=O)OC(C)(C)C | –
> 10 µM | 49.5% | COC(=O)[C@@H](Cc1ccccc1)N(C)C(=O)[C@H](C)NC(=O)[C@H](CC(C)C)NC(=O)C[C@H](O)[C@H](Cc1ccccc1)NC(=O)[C@H](CCC(N)=O)N(C)C(=O)OCc1ccccc1 | –
> 10 µM | 33.9% | CC(C)C[C@H](NC(=O)C[C@H](O)[C@H](Cc1ccccc1)NC(=O)[C@@H](N)Cc1cc2ccccc2[nH]1)C(=O)N[C@@H](C)C(=O)N(C)[C@H](Cc1ccccc1)C(=O)OCc1ccccc1 | –
> 10 µM | 35.1% | CC(C)C[C@H](NC(=O)C[C@H](O)[C@H](Cc1ccccc1)NC(=O)c1cccc(C(=O)N2CCCC2=O)c1)C(=O)N[C@@H](C)C(=O)N(C)[C@H](Cc1ccccc1)C(=O)O | –
> 10 µM | 35% | CCCN(CCC)C(=O)c1cccc(C(=O)N[C@@H](Cc2ccccc2)[C@@H](O)CC(=O)N[C@@H](CC(C)C)C(=O)N[C@@H](C)C(=O)N(C)[C@H](Cc2ccccc2)C(=O)O)n1 | –
0.48 µM | 97.2% | CCCN(CCC)C(=O)c1cccc(C(=O)N[C@@H](Cc2ccccc2)[C@@H](O)CC(=O)N[C@@H](CC(C)C)C(=O)N[C@@H](C)C(=O)N(C)[C@H](Cc2ccccc2)C(=O)O)c1 | –
4.46 µM | 75% | COC(=O)[C@H](CC(C)C)NC(=O)C[C@H](O)[C@H](Cc1ccccc1)NC(=O)[C@H](CCC(N)=O)N(C)C(=O)[C@@H](NC(=O)OCc1ccccc1)C(C)C | –
> 10 µM | 28.4% | CC(C)C[C@H](NC(=O)C[C@H](O)[C@H](Cc1ccccc1)NC(=O)c1cccc(C(=O)N2CCCC2=O)c1)C(=O)N[C@@H](C)C(=O)N(C)[C@H](Cc1ccccc1)C(=O)OCc1ccccc1 | –
> 10 µM | 4.44% | CC(C)C[C@H](NC(=O)C[C@H](O)[C@H](Cc1ccccc1)NC(=O)OC(C)(C)C)C(=O)N[C@@H](C)C(=O)N(C)[C@H](Cc1ccccc1)C(=O)OCc1ccccc1 | –

From ChEMBL document CHEMBL3400120, “Design, synthesis and biological evaluation of tasiamide B derivatives as BACE1 inhibitors” (Bioorg Med Chem, 2015)
